Source: patent US20140248361A1, “HERBAL EXTRACT COMPOSITION AND A PROCESS THEREOF” (PRASAN SOLUTIONS (INDIA) PVT LTD, priority 2012, published 2014)

Key:
[1] = Estimation of shelf life of palm oil (Rancimat temperature extrapolation); conditions: 200 ppm
Protocol: (§2) This is an aid for estimating the shelf life of oils and fats. The extrapolation makes use of the relationship between the measured induction time and the temperature given by van't Hoff's law. Several measurements are made at different temperatures and then extrapolated to the storage temperature. The values so obtained allow estimation of the storage stability of the oil or fat containing PRESOL.
(§3) The shelf life is calculated using Rancimat shelf life calculator.

[2] = Estimation of shelf life of sunflower oil (Rancimat temperature extrapolation); conditions: 200 ppm
Protocol: as §2, §3

[3] = Peroxide value of palm oil on storage
Protocol: (§4) The shelf life of oil is studied by carrying out chemical analysis, which include studying peroxide value (represents extent of primary oxidation), Para-anisidine value (represents extent of secondary oxidation) and totox value (reflects total oxidation of oil). These parameters are determined for 1 kg of untreated oil and treated oil at every 15 days interval for samples stored at ambient temperature and at every 7 days interval for samples stored at 50° C. The treated oil being, the oil upon addition of 200 ppm of TBHQ (sample-A), 200 ppm of BHA (sample-B), 200 ppm and 500 ppm of pulverized green tea extract with 90% polyphenol (sample-C), 200 ppm and 500 ppm of rosemary extract (sample-D), 200 ppm and 500 ppm of green tea extract after cryogenic grinding (sample-E), 200 ppm and 500 ppm of crude green tea extract (sample-F) and PRESOL at 200 ppm and 500 ppm. The untreated oil is the control sample without any antioxidant.
(§5) The threshold limit for per oxide value under which oil can be used for safe consumption is 10 meq of O2/Kg oil. Similarly, the threshold limit of para-anisidine value and Totox value is 10 and 30, respectively.

[4] = Para-anisidine value of palm oil on storage
Protocol: as §4, §5

[5] = Totox value of palm oil on storage; conditions: ambient temperature
Protocol: as §4, §5

Shelf life of canola oil = conditions: 200 ppm
Protocol: D. Determination of Shelf Life of Canola Oil in the Presence of PRESOL • Shelf life of canola oil is analyzed upon adding 200 ppm of TBHQ (sample-A), BHA (sample-B), green tea extract with 90% polyphenol (sample-C), rosemary extract (sample-D), green tea extract after cryogenic grinding (sample-E), and PRESOL, respectively to canola oil.

[6] = Frying cycle analysis of palm oil (total polar compounds)
Protocol: (§1) Palm oil and sunflower oil with antioxidants added to it are obtained from a local refinery. Frying studies are carried out with control oil and by adding TBHQ (Sample A), BHA (Sample B), GT Pulverized (Sample C), ROS (Sample D), GT Cryo grinded (Sample E), GT Crude Extract (Sample F) and PRESOL, respectively to the oils. Experiments are carried out a concentration of 200 ppm and 500 ppm. Fresh potatoes of less reduced sugar content variety are used throughout the experiment which is purchased form a local supermarket. Oil samples are withdrawn from the fryer at the end of every day and stored at −4° C. until it is tested for quality parameters viz, total polar compounds. Polar compounds present in oil and fats are measured by column chromatography using standard method, ES ISO 8420:2012.

[7] = Frying cycle analysis of sunflower oil (total polar compounds)
Protocol: as §1

[8] = Effect of particle size on antioxidant activity (Rancimat induction time) in palm oil; conditions: 200 ppm in palm oil; Rancimat 120° C.
Protocol: (§6) Effect of particle size analysis on antioxidant activity is analysed with the help of Rancimat (Metrohm 743) which gives oxidative stability index based on the induction time (h). Rancimat analysis is carried out at two different temperature in order to set relationship between induction time and temperature of the studies.
(§7) In this, we have analyzed the particle size of samples with the help of Particle Size Analyzer (Microtrac, S3500) and its antioxidant activity with the help of Rancimat (Metrohm 743).

[9] = Synergism of TBHQ and PRESOL combination (Rancimat) in palm oil
Protocol: Synergism of TBHQ and PRESOL is analyzed in palm oil. If the frying industry is considered, synthetic antioxidant TBHQ is being added to the oils. […] In order to overcome this limitation, TBHQ is fortified with PRESOL and added to vegetable oils in order to increase the frying cycles which ultimately increases the shelf life of end products. […] The below table 25 illustrates all the combination of fortification of TBHQ and PRESOL used in palm oil to illustrate maximum activity of fortified combination. Synergism is calculated based on the below equation: [formula]

[10] = Effect of particle size on antioxidant activity (Rancimat induction time) in sunflower oil; conditions: 200 ppm in sunflower oil; Rancimat 100° C.
Protocol: as §6, §7

[11] = Oil stability index (Rancimat) of palm oil; conditions: 200 ppm
Protocol: (§8) As used herein, ‘Oil Stability Index (OSI)’ is an American Oil Chemists Society (AOCS) approved method that determines the relative resistance of fat and oil samples to oxidation, which is defined by the following equation—
(§9) The oil stability index is determined using the Metrohm's Rancimat (Metrohm 743 Rancimat).
4.0 g of palm oil is weighed into the reaction vessel. The reaction vessel filled with oil is placed in a heating block. The temperature of the block is maintained at 100° C., 120° C. and 140° C., respectively. The oil is heated at the said temperatures, followed by passing air at a flow rate of 20 L/h. Flowing of air through the oil produces peroxides during primary oxidation and organic acids having low molecular weight, aldehydes and ketones with typical rancid odor during the secondary oxidation phase. These compounds are conveyed by the air flow into measurement vessel containing distilled water where conductivity is being checked continuously by sensor.

[12] = Oil stability index (Rancimat) of sunflower oil; conditions: 200 ppm
Protocol: as §8, §9
4.0 g of sunflower oil is weighed into the reaction vessel. The reaction vessel filled with oil is placed in a heating block. The temperature of the block is maintained at 80° C., 100° C. and 120° C., respectively. The oil is heated at the said temperatures, followed by passing air at a flow rate of 20 L/h. Flowing of air through the oil produces peroxides during primary oxidation and organic acids having low molecular weight, aldehydes and ketones with typical rancid odor during the secondary oxidation phase. These compounds are conveyed by the air flow into measurement vessel containing distilled water where conductivity is being checked continuously by sensor.

[13] = ambient temperature, day 0, 200 ppm
[14] = ambient temperature, day 15, 200 ppm
[15] = ambient temperature, day 30, 200 ppm
[16] = ambient temperature, day 45, 200 ppm
[17] = ambient temperature, day 60, 200 ppm
[18] = ambient temperature, day 75, 200 ppm
[19] = ambient temperature, day 90, 200 ppm
[20] = ambient temperature, day 105, 200 ppm
[21] = ambient temperature, day 120, 200 ppm
[22] = ambient temperature, day 135, 200 ppm
[23] = ambient temperature, day 150, 200 ppm
[24] = ambient temperature, day 165, 200 ppm
[25] = ambient temperature, day 180, 200 ppm

CC(C)(C)c1cc(O)ccc1O [Sample A, tertiary butyl hydroquinone]
Shelf Life (days) at 30° C. [1]: 617.0 days
Shelf Life (days) at 30° C. [2]: 171.0 days
Peroxide value ([3]; 50° C., day 0, 200 ppm): 0.482
Peroxide value ([3]; 50° C., day 7, 200 ppm): 1.309
Peroxide value ([3]; 50° C., day 15, 200 ppm): 1.836
Peroxide value ([3]; 50° C., day 22, 200 ppm): 1.887
Peroxide value ([3]; 50° C., day 30, 200 ppm): 2.005
Peroxide value ([3]; 50° C., day 37, 200 ppm): 3.074
Peroxide value ([3]; 50° C., day 45, 200 ppm): 3.686
Peroxide value ([3]; 50° C., day 52, 200 ppm): 4.102
Peroxide value ([3]; 50° C., day 60, 200 ppm): 4.491
Peroxide value ([3]; 50° C., day 67, 200 ppm): 4.75
Peroxide value ([3]; 50° C., day 75, 200 ppm): 4.893
Peroxide value ([3]; 50° C., day 82, 200 ppm): 5.209
Peroxide value ([3]; 50° C., day 90, 200 ppm): 5.395
Peroxide value [3, 13]: 0.465
Peroxide value [3, 14]: 0.762
Peroxide value [3, 15]: 1.417
Peroxide value [3, 16]: 1.558
Peroxide value [3, 17]: 1.771
Peroxide value [3, 18]: 1.855
Peroxide value [3, 19]: 1.814
Peroxide value [3, 20]: 1.88
Peroxide value [3, 21]: 1.91
Peroxide value [3, 22]: 1.951
Peroxide value [3, 23]: 2.222
Peroxide value [3, 24]: 2.31
Peroxide value [3, 25]: 2.403
Para-anisidine value ([4]; 50° C., day 0, 200 ppm): 2.69
Para-anisidine value ([4]; 50° C., day 7, 200 ppm): 3.062
Para-anisidine value ([4]; 50° C., day 15, 200 ppm): 3.296
Para-anisidine value ([4]; 50° C., day 22, 200 ppm): 3.395
Para-anisidine value ([4]; 50° C., day 30, 200 ppm): 3.74
Para-anisidine value ([4]; 50° C., day 37, 200 ppm): 4.052
Para-anisidine value ([4]; 50° C., day 45, 200 ppm): 4.209
Para-anisidine value ([4]; 50° C., day 52, 200 ppm): 4.685
Para-anisidine value ([4]; 50° C., day 60, 200 ppm): 5.091
Para-anisidine value ([4]; 50° C., day 67, 200 ppm): 5.208
Para-anisidine value ([4]; 50° C., day 75, 200 ppm): 5.514
Para-anisidine value ([4]; 50° C., day 82, 200 ppm): 5.601
Para-anisidine value ([4]; 50° C., day 90, 200 ppm): 5.827
Para-anisidine value [4, 13]: 2.566
Para-anisidine value [4, 14]: 3.062
Para-anisidine value [4, 15]: 3.045
Para-anisidine value [4, 16]: 3.113
Para-anisidine value [4, 17]: 2.615
Para-anisidine value [4, 18]: 2.731
Para-anisidine value [4, 19]: 2.772
Para-anisidine value [4, 20]: 3.217
Para-anisidine value [4, 21]: 3.303
Para-anisidine value [4, 22]: 3.438
Para-anisidine value [4, 23]: 3.473
Para-anisidine value [4, 24]: 3.639
Para-anisidine value [4, 25]: 3.808
Totox value ([5]; day 0, 200 ppm): 3.497
Totox value ([5]; day 15, 200 ppm): 4.585
Totox value ([5]; day 30, 200 ppm): 5.879
Totox value ([5]; day 45, 200 ppm): 6.228
Totox value ([5]; day 60, 200 ppm): 6.157
Totox value ([5]; day 75, 200 ppm): 6.441
Totox value ([5]; day 90, 200 ppm): 6.400
Totox value ([5]; day 105, 200 ppm): 6.976
Totox value ([5]; day 120, 200 ppm): 7.122
Totox value ([5]; day 135, 200 ppm): 7.339
Totox value ([5]; day 150, 200 ppm): 7.916
Totox value ([5]; day 165, 200 ppm): 8.258
Totox value ([5]; day 180, 200 ppm): 8.614
Shelf Life (No. Of Days) (Shelf life of canola oil): 181 days
frying cycle after which threshold limit for total polar compounds is crossed ([6]; palm oil): 40 cycle
Number of batches fried ([6]; palm oil (PO), potato chips, 200 ppm): 40 batches
Total Polar compounds of sunflower oil ([7]; 200 ppm, frying cycle 0): 3.746
Total Polar compounds of sunflower oil ([7]; 200 ppm, frying cycle 8): 6.375
Total Polar compounds of sunflower oil ([7]; 200 ppm, frying cycle 16): 13.632
Total Polar compounds of sunflower oil ([7]; 200 ppm, frying cycle 24): 18.505
Total Polar compounds of sunflower oil ([7]; 200 ppm, frying cycle 32): 23.123
Total Polar compounds of sunflower oil ([7]; 200 ppm, frying cycle 40): 28.648
frying cycle after which threshold limit for total polar compounds is crossed ([7]; sunflower oil): 40 cycle
Number of batches fried ([7]; sunflower oil (SFO), potato chips, 200 ppm): 40 batches
Induction Period (h) of PO at 120° C. [8]: 20.93 h
Increase in OSI (%) ([9]; 50 ppm alone): 5.12%
Induction Time (H) at 120 C. ([9]; 50 ppm alone): 9.57 H
OSI ([9]; 50 ppm alone): 1.054
increase in induction time as compared to control (X-C) ([9]; 50 ppm alone): 0.49
Increase in OSI (%) ([9]; 100 ppm alone): 17.53%
Induction Time (H) at 120 C. ([9]; 100 ppm alone): 11.01 H
OSI ([9]; 100 ppm alone): 1.21
increase in induction time as compared to control (X-C) ([9]; 100 ppm alone): 1.93
Increase in OSI (%) ([9]; 200 ppm alone): 36.24%
Induction Time (H) at 120 C. ([9]; 200 ppm alone): 14.24 H
OSI ([9]; 200 ppm alone): 1.57
increase in induction time as compared to control (X-C) ([9]; 200 ppm alone): 5.16
Induction Period (h) of SFO 100° C. [10]: 26.82 h
Induction Time ([11]; 100° C.): 95.76 h
Oxidative Stability Index (OSI) ([11]; 100° C.): 2.30
Induction Time ([11]; 120° C.): 20.93 h
Oxidative Stability Index (OSI) ([11]; 120° C.): 2.17
Induction Time ([11]; 140° C.): 5.26 h
Oxidative Stability Index (OSI) ([11]; 140° C.): 2.15
Induction Time ([12]; 80° C.): 109.76 h
Oxidative Stability Index (OSI) ([12]; 80° C.): 3.01
Induction Time ([12]; 100° C.): 26.82 h
Oxidative Stability Index (OSI) ([12]; 100° C.): 2.88
Induction Time ([12]; 120° C.): 6.13 h
Oxidative Stability Index (OSI) ([12]; 120° C.): 2.61
